Measurements as given in EP4603105A1, “PHARMACEUTICAL COMPOSITION CONTAINING CYCLIC COMPOUND HAVING SELECTIVE KRAS INHIBITORY EFFECT AGAINST HRAS AND NRAS” (CHUGAI SEIYAKU KABUSHIKI KAISHA, priority 2022, dated 2024).
*1 amine or outer side, *2 acyl side, *3 side chain or, on linkers, in order; H or OH if unused. Where a SMILES comes first, the peptide text is derived from it. Bridges are numbered along the chain shown (N, C = ends). [ ]: non-standard residue; d: D form. The star is where a group is joined. hPhe(3,5-F2-4-CF3) = N[C@@H](CCc1cc(F)c(C(F)(F)F)c(F)c1)C(=O)O; hPhe(3-Cl-4-CF3) = N[C@@H](CCc1ccc(C(F)(F)F)c(Cl)c1)C(=O)O; NPrPhe(4-CF3) = CCCN[C@@H](Cc1ccc(C(F)(F)F)cc1)C(=O)O; NEtPhe(4-Me) = CCN[C@@H](Cc1ccc(C)cc1)C(=O)O; X16 = O=C([C@@H](N[*:1])C1CC(F)(F)C1)[*:2]; NMeGly(cPent) = CN[C@H](C(=O)O)C1CCCC1; NMeNva(3-Et) = CCC(CC)[C@H](NC)C(=O)O; Hyp = O=C(O)[C@@H]1C[C@@H](O)CN1; NMeD = CN[C@@H](CC(=O)O)C(=O)O; NMeL = CN[C@@H](CC(C)C)C(=O)O; NMeNva = CCC[C@H](NC)C(=O)O; Morpholide = C1CN(*)CCO1; NMeA = CN[C@@H](C)C(=O)O; Ac5c = NC1(C(=O)O)CCCC1; Aze = O=C(O)[C@@H]1CCN1; Ac4c = NC1(C(=O)O)CCC1; NEtG = CCNCC(=O)O; Sar = CNCC(=O)O

Key:
[1] = target: GDP-bound NRAS wild-type protein (Homo sapiens, UniProt P01111); experiment: Binding to NRAS by surface plasmon resonance (SPR), KD and KD ratio to KRAS
How it was run: (§1)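 Compound binding is evaluated by SPR single-cycle kinetics, with concentrations added intermittently from low to high for 75 s each. Target surfaces carry GDP-loaded biotinylated Avi-RAS at about 100–300 RU, regenerated after each cycle; temperature 30°C. A 1:1 binding model gives KD.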

[2] = tested on: human lung cancer strain NCI-H441; format: cell-based
How it was run: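 Proliferation was scored by […] measured after the reagent was added to cultures kept at 37°C in 5% carbon dioxide.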

HRAS wild-type protein = HRAS wild-type protein (Homo sapiens, UniProt P01112); experiment: Binding to HRAS by surface plasmon resonance (SPR), KD and KD ratio to KRAS
How it was run: as §1

[3] = ratio of KD for GDP-bound NRAS wild-type protein to KD for KRAS
[4] = ratio of KD for HRAS wild-type protein to KD for KRAS
[5] = ratio of the KD value with respect to GDP-bound NRAS wild-type protein to the KD value with respect to KRAS
[6] = ratio of the KD value with respect to HRAS wild-type protein to the KD value with respect to KRAS

Chain of GDP-bound NRAS wild-type protein (P01111 whole entry): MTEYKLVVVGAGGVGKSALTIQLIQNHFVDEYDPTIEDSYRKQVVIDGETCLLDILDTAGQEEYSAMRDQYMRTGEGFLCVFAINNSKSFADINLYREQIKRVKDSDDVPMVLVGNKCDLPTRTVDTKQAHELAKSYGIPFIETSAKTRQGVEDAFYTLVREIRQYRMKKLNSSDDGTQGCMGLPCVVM
Chain of HRAS wild-type protein (P01112 whole entry): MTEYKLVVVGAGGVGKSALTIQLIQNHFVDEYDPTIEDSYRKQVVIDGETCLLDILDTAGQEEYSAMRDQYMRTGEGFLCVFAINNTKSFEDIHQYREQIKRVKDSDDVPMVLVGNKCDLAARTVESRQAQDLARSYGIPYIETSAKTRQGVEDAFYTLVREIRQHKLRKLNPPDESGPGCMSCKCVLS

Row | Structure (SMILES) | NRAS /KRAS [1, 3] | IC50 [2] | HRAS /KRAS (HRAS wild-type protein; [4]) | NRAS /KRAS [1, 5] | HRAS /KRAS (HRAS wild-type protein; [6]) | NRAS /KRAS ([1]; ratio of KD value for GDP-bound NRAS wild-type protein to KD value for KRAS (SPR)) | HRAS /KRAS (HRAS wild-type protein; ratio of KD value for HRAS wild-type protein to KD value for KRAS (SPR))
1 | CCCN1C(=O)CN(C)C(=O)CN(CC)C(=O)[C@H]([C@@H](C)CC)NC(=O)[C@H](CC(C)C)N(C)C(=O)C[C@@H](C(=O)N2CCOCC2)N(C)C(=O)[C@H](C2CCCC2)N(C)C(=O)C2(CCCC2)NC(=O)[C@@H]2C[C@@H](OC)CN2C(=O)[C@H](CCc2ccc(C(F)(F)F)c(Cl)c2)NC(=O)CN(C)C(=O)[C@@H]1Cc1ccc(C(F)(F)F)cc1 [PP0296] ([NMeL]I[NEtG][Sar][NPrPhe(4-CF3)][Sar][hPhe(3-Cl-4-CF3)][Hyp](Me)[Ac5c][NMeGly(cPent)][NMeD]-Morpholide; lactam N-11) | B (a compound having 3 or more and less than 10 is denoted as B) | 0.0043 µM | C (A compound having a KD ratio of 0.1 or more and less than 3 is denoted as C) |  |  |  | 
2 | CCCN1CC(=O)N(C)[C@H]2C/C=C\CCN(C2=O)[C@@H](Cc2ccc(C)cc2)C(=O)N(C)CC(=O)N[C@@H](CCc2ccc(C(F)(F)F)c(OC)c2)C(=O)N2C[C@H](OCC)C[C@H]2C(=O)NC2(CC(C)(C)C2)C(=O)N(C)[C@@H](C2CCCC2)C(=O)N(C)[C@H](C(=O)N(C)C)CC(=O)N(C)[C@@H](CC)C(=O)N[C@@H]([C@@H](C)CC)C1=O [PP2096] |  | 0.0107 µM |  | A (a compound having 10 or more and less than 20 is denoted as A) | A (a compound having 10 or more and less than 20 is denoted as A) |  | 
3 | CC[C@H](C)[C@@H]1NC(=O)[C@H](CC(C)C)N(C)C(=O)C[C@@H](C(=O)N2CCOCC2)N(C)C(=O)[C@H](CC(C)C)N(C)C(=O)C2(CCCC2)NC(=O)[C@@H]2CCCN2C(=O)[C@H](CCc2ccc(C(F)(F)F)c(Cl)c2)NC(=O)CN(C)C(=O)[C@H](Cc2ccc(C)cc2)N(CC)C(=O)[C@@H]2CCN2C(=O)[C@H](C)N(C)C1=O [PP0016] ([NMeL]I[NMeA][Aze][NEtPhe(4-Me)][Sar][hPhe(3-Cl-4-CF3)]P[Ac5c][NMeL][NMeD]-Morpholide; lactam N-11) | C (A compound having a KD ratio of 0.1 or more and less than 3 is denoted as C) | 0.0246 µM | C (A compound having a KD ratio of 0.1 or more and less than 3 is denoted as C) |  |  |  | 
4 | CCO[C@@H]1C[C@H]2C(=O)NC3(CC(C)(C)C3)C(=O)N(C)[C@@H](C(CC)CC)C(=O)N(C)[C@H](C(=O)N(C)C)CC(=O)N(C)[C@H]3CCCC/C=C/c4ccc(cc4)C[C@@H](C(=O)N(C)CC(=O)N[C@@H](CCc4ccc(Cl)c(Cl)c4)C(=O)N2C1)N1CC/C=C\C[C@@H](C1=O)N(C)C(=O)CN(C)C(=O)[C@H]([C@@H](C)CC)NC3=O [PP3045] | AA (a compound having 20 or more is denoted as AA) | 0.0159 µM | A (a compound having 10 or more and less than 20 is denoted as A) |  |  |  | 
5 | CCO[C@@H]1C[C@H]2C(=O)NC3(CC(F)(F)C3)C(=O)N(C)[C@@H](C3CCCC3)C(=O)N(C)[C@H](CC)CC(=O)N(C)[C@@H](CC3CC3)C(=O)N[C@@H]([C@@H](C)CC)C(=O)N(C)CC(=O)N(C)[C@H]3C/C=C\CCN(C3=O)[C@@H](Cc3ccc(C(F)(F)F)cc3)C(=O)N(C)CC(=O)N[C@@H](CCc3cc(F)c(C(F)(F)F)c(F)c3)C(=O)N2C1 [PP1633] |  | 0.0151 µM |  |  |  | A (a compound having 10 or more and less than 20 is denoted as A) | B (a compound having 3 or more and less than 10 is denoted as B)
6 | CC[C@H](C)[C@@H]1NC(=O)[C@H](C)N(C)C(=O)C[C@@H](C(=O)N2CCOCC2)N(C)C(=O)[C@H](C2CCCC2)N(C)C(=O)C2(CCCC2)NC(=O)[C@@H]2CCCN2C(=O)[C@H](CCc2cc(F)c(C(F)(F)F)c(F)c2)NC(=O)CN(C)C(=O)[C@H](Cc2ccc(C(F)(F)F)cc2)N2CCCCC[C@@H](C2=O)N(C)C(=O)CN(C)C1=O [PP0487] |  | 0.26 µM |  | B (a compound having 3 or more and less than 10 is denoted as B) | B (a compound having 3 or more and less than 10 is denoted as B) |  | 
7 | CCCN1C(=O)CN(C)C(=O)CN(C)C(=O)[C@H]([C@@H](C)CC)NC(=O)[C@H](CC(C)C)N(C)C(=O)C[C@@H](C(=O)N2CCOCC2)N(C)C(=O)[C@H](C2CCCC2)N(C)C(=O)C2(CCCC2)NC(=O)CN(CC)C(=O)[C@H](CCc2ccc(C(F)(F)F)c(Cl)c2)NC(=O)CN(C)C(=O)[C@@H]1Cc1ccc(C(F)(F)F)cc1 [PP0144] ([NMeL]I[Sar][Sar][NPrPhe(4-CF3)][Sar][hPhe(3-Cl-4-CF3)][NEtG][Ac5c][NMeGly(cPent)][NMeD]-Morpholide; lactam N-11) | B (a compound having 3 or more and less than 10 is denoted as B) | 0.0183 µM | C (A compound having a KD ratio of 0.1 or more and less than 3 is denoted as C) |  |  |  | 
8 | CCO[C@@H]1C[C@H]2C(=O)NC3(CCC3)C(=O)N(C)[C@@H](C3CCCC3)C(=O)N(C)[C@H](C(=O)N3CCOCC3)CC(=O)N(C)[C@@H](CC)C(=O)N[C@@H]([C@@H](C)CC)C(=O)N3CC[C@H]3C(=O)N(C)[C@H]3CC(C)=CCN(C3=O)[C@@H](Cc3ccc(C(F)(F)F)cc3)C(=O)N(C)CC(=O)N[C@@H](CCc3cc(F)c(C(F)(F)F)c(F)c3)C(=O)N2C1 [PP1042] | C (A compound having a KD ratio of 0.1 or more and less than 3 is denoted as C) | 0.349 µM | C (A compound having a KD ratio of 0.1 or more and less than 3 is denoted as C) |  |  |  | 
9 | CCC[C@H]1C(=O)N[C@@H]([C@@H](C)CC)C(=O)N(C)CC(=O)N(C)[C@H]2C/C=C\CCN(C2=O)[C@@H](Cc2ccc(C(F)(F)F)cc2)C(=O)N(C)CC(=O)N[C@@H](CCc2ccc(C(F)(F)F)c(OC)c2)C(=O)N2C[C@H](OCC)C[C@H]2C(=O)N(C)C2(CCC2)C(=O)N(C)[C@@H](C2CCCC2)C(=O)N(C)[C@H](C(=O)N(C)C)CC(=O)N1C [PP2312] |  | 0.0016 µM |  | A (a compound having 10 or more and less than 20 is denoted as A) | B (a compound having 3 or more and less than 10 is denoted as B) |  | 
10 | CCC[C@H]1C(=O)N[C@@H]([C@@H](C)CC)C(=O)N(C)[C@@H](C)C(=O)N2CC[C@H]2C(=O)N(CCC)[C@@H](Cc2ccc(C(F)(F)F)cc2)C(=O)N(C)CC(=O)N[C@@H](CCc2ccc(C(F)(F)F)c(Cl)c2)C(=O)N2CCC[C@H]2C(=O)NC2(CCC2)C(=O)N(C)[C@@H](C(CC)CC)C(=O)N(C)[C@H](C(=O)N2CCOCC2)CC(=O)N1C [PP1959] ([NMeNva]I[NMeA][Aze][NPrPhe(4-CF3)][Sar][hPhe(3-Cl-4-CF3)]P[Ac4c][NMeNva(3-Et)][NMeD]-Morpholide; lactam N-11) |  | 0.0147 µM |  | C (A compound having a KD ratio of 0.1 or more and less than 3 is denoted as C) | B (a compound having 3 or more and less than 10 is denoted as B) |  | 
11 | CCO[C@@H]1C[C@H]2C(=O)NC3(CCC3)C(=O)N(C)[C@@H](C3CCCC3)C(=O)N(C)[C@H](C)CC(=O)N(C)[C@@H](CC)C(=O)N[C@@H]([C@@H](C)CC)C(=O)N(C)CC(=O)N(C)[C@H]3C/C=C\CCN(C3=O)[C@@H](Cc3ccc(C(F)(F)F)cc3)C(=O)N(C)CC(=O)N[C@@H](CCc3cc(F)c(C(F)(F)F)c(F)c3)C(=O)N2C1 [PP1095] | B (a compound having 3 or more and less than 10 is denoted as B) | 0.0149 µM | B (a compound having 3 or more and less than 10 is denoted as B) |  |  |  | 
12 | CCCN1C(=O)CN(C)C(=O)[C@@H]2CCN2C(=O)[C@H](C2CC(F)(F)C2)NC(=O)[C@H](CC(C)C)N(C)C(=O)C[C@@H](C(=O)N2CCOCC2)N(C)C(=O)[C@H](C2CCCC2)N(C)C(=O)C2(CCCC2)NC(=O)[C@@H]2CCCN2C(=O)[C@H](CCc2cc(F)c(C(F)(F)F)c(F)c2)NC(=O)CN(C)C(=O)[C@@H]1Cc1ccc(C(F)(F)F)cc1 [PP0786] ([NMeL][X16][Aze][Sar][NPrPhe(4-CF3)][Sar][hPhe(3,5-F2-4-CF3)]P[Ac5c][NMeGly(cPent)][NMeD]-Morpholide; lactam N-11) | B (a compound having 3 or more and less than 10 is denoted as B) | 0.0448 µM | B (a compound having 3 or more and less than 10 is denoted as B) |  |  |  | 
13 | C#CCN1CC(=O)N(C)[C@H]2C/C=C\CCN(C2=O)[C@@H](Cc2ccc(C)cc2)C(=O)N(C)CC(=O)N[C@@H](CCc2cc(F)c(C(F)(F)F)c(F)c2)C(=O)N2C[C@H](OCC)C[C@H]2C(=O)NC2(CC(C)(C)C2)C(=O)N(C)[C@@H](C2CCCC2)C(=O)N(C)[C@H](C(=O)N(C)C)CC(=O)N(C)[C@@H](CC(C)C)C(=O)N[C@@H]([C@@H](C)CC)C1=O [PP2052] |  | 0.0041 µM |  | A (a compound having 10 or more and less than 20 is denoted as A) | A (a compound having 10 or more and less than 20 is denoted as A) |  | 
14 | CCO[C@@H]1C[C@H]2C(=O)NC3(CC(C)(C)C3)C(=O)N(C)[C@@H](C3CCCC3)C(=O)N(C)[C@H](C(=O)N(C)C)CC(=O)N(C)[C@@H](C)C(=O)N[C@@H]([C@@H](C)CC)C(=O)N(C)CC(=O)N(C)[C@H]3CCCCCN(C3=O)[C@@H](Cc3ccc(C(F)(F)F)cc3)C(=O)N(C)CC(=O)N[C@@H](CCc3cc(F)c(C(F)(F)F)c(F)c3)C(=O)N2C1 [PP0723] |  | 0.0108 µM |  | B (a compound having 3 or more and less than 10 is denoted as B) | B (a compound having 3 or more and less than 10 is denoted as B) |  | 
